From PubChem BioAssay (NCI)
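Grown in 96-well plates, cells were treated for 48 hours with each compound at five concentrations. Insufficient inhibition: endpoint recorded as highest concentration tested. The concentration for full growth arrest is given as TGI.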

How the values were obtained:
Assay in all cases: NCI anticancer screen, dose series, 48 h
SNB-19 CNS = system: SNB-19 CNS
UACC-257 melanoma = system: UACC-257 melanoma
NCI-H226 lung = system: NCI-H226 lung
SNB-75 CNS = system: SNB-75 CNS
BT-549 breast = system: BT-549 breast
786-0 renal = system: 786-0 renal
HS 578T breast = system: HS 578T breast
KM12 colon = system: KM12 colon
UO-31 renal = system: UO-31 renal
HCT-116 colon = system: HCT-116 colon
MOLT-4 leukemia = system: MOLT-4 leukemia
COLO 205 colon = system: COLO 205 colon
PC-3 prostate = system: PC-3 prostate
MDA-MB-231 breast = system: MDA-MB-231 breast
MDA-N = system: MDA-N
ACHN renal = system: ACHN renal
HL-60(TB) leukemia = system: HL-60(TB) leukemia
A498 renal = system: A498 renal
TK-10 renal = system: TK-10 renal
UACC-62 melanoma = system: UACC-62 melanoma
EKVX NSCLC = system: EKVX NSCLC
HCT-15 colon = system: HCT-15 colon
NCI-H522 lung = system: NCI-H522 lung
SK-OV-3 ovarian = system: SK-OV-3 ovarian
OVCAR-8 ovarian = system: OVCAR-8 ovarian
A549 NSCLC = system: A549 NSCLC
SR leukemia = system: SR leukemia
NCI-H460 lung = system: NCI-H460 lung
SW-620 colon = system: SW-620 colon
NCI-H23 lung = system: NCI-H23 lung
MALME-3M melanoma = system: MALME-3M melanoma
HOP-92 NSCLC = system: HOP-92 NSCLC
M14 melanoma = system: M14 melanoma
SF-295 CNS = system: SF-295 CNS
CAKI-1 renal = system: CAKI-1 renal
HOP-62 NSCLC = system: HOP-62 NSCLC
HT29 colon = system: HT29 colon
MCF7 breast = system: MCF7 breast
SF-539 CNS = system: SF-539 CNS
SF-268 CNS = system: SF-268 CNS
SK-MEL-2 melanoma = system: SK-MEL-2 melanoma
SN12C renal = system: SN12C renal
LOX IMVI melanoma = system: LOX IMVI melanoma
RPMI-8226 leukemia = system: RPMI-8226 leukemia
OVCAR-5 ovarian = system: OVCAR-5 ovarian
SK-MEL-28 melanoma = system: SK-MEL-28 melanoma
RXF 393 renal = system: RXF 393 renal
DU-145 prostate = system: DU-145 prostate
K-562 leukemia = system: K-562 leukemia
OVCAR-4 ovarian = system: OVCAR-4 ovarian
U251 CNS = system: U251 CNS
CCRF-CEM leukemia = system: CCRF-CEM leukemia
OVCAR-3 ovarian = system: OVCAR-3 ovarian
NCI/ADR-RES ovarian = system: NCI/ADR-RES ovarian
SK-MEL-5 melanoma = system: SK-MEL-5 melanoma
T-47D breast = system: T-47D breast
IGROV1 ovarian = system: IGROV1 ovarian

Compound `Cc1c(S(=O)(=O)/N=C(\NN)Nc2ccc(Cl)cc2)sc2ccc(Cl)cc12` has a TGI (SNB-19 CNS) of 38 µM, a TGI (UACC-257 melanoma) of 33.8 µM and a TGI (NCI-H226 lung) of 41.6 µM. It also gave a TGI (SNB-75 CNS) of 28.4 µM, a TGI (BT-549 breast) of 30.9 µM and a TGI (786-0 renal) of 31.5 µM. The TGI (HS 578T breast) was 59.1 µM, the TGI (KM12 colon) was 30 µM and the TGI (UO-31 renal) was 33.1 µM. It also gave a TGI (HCT-116 colon) of 26.4 µM, a TGI (MOLT-4 leukemia) of 59.8 µM and a TGI (COLO 205 colon) of 33.4 µM. For the same compound, the TGI (PC-3 prostate) was 29 µM, the TGI (MDA-MB-231 breast) was 32 µM and the TGI (MDA-N) was 29.1 µM. The TGI (ACHN renal) was 30 µM, the TGI (HL-60(TB) leukemia) was 90.8 µM and the TGI (A498 renal) was 29.5 µM. It also gave a TGI (TK-10 renal) of 31.8 µM, a TGI (UACC-62 melanoma) of 27.6 µM and a TGI (EKVX NSCLC) of 27.2 µM. It also gave a TGI (HCT-15 colon) of 34.4 µM, a TGI (NCI-H522 lung) of 32.5 µM and a TGI (SK-OV-3 ovarian) of 35.9 µM. It also gave a TGI (OVCAR-8 ovarian) of 34.7 µM, a TGI (A549 NSCLC) of 31.6 µM and a TGI (SR leukemia) of 65.1 µM. For the same compound, the TGI (NCI-H460 lung) was 34.8 µM, the TGI (SW-620 colon) was 71.2 µM and the TGI (NCI-H23 lung) was 35.6 µM. For the same compound, the TGI (MALME-3M melanoma) was 39.1 µM, the TGI (HOP-92 NSCLC) was 31.4 µM and the TGI (M14 melanoma) was 34.8 µM. The TGI (SF-295 CNS) was 33.6 µM, the TGI (CAKI-1 renal) was 34.4 µM and the TGI (HOP-62 NSCLC) was 36.3 µM. The TGI (HT29 colon) was 30.7 µM, the TGI (MCF7 breast) was 30.2 µM and the TGI (SF-539 CNS) was 31.5 µM. It also gave a TGI (SF-268 CNS) of 33.8 µM, a TGI (SK-MEL-2 melanoma) of 30.5 µM and a TGI (SN12C renal) of 30.9 µM. For the same compound, the TGI (LOX IMVI melanoma) was 35.1 µM, the TGI (RPMI-8226 leukemia) was greater than 100 µM and the TGI (OVCAR-5 ovarian) was 27.9 µM. For the same compound, the TGI (SK-MEL-28 melanoma) was 44.1 µM, the TGI (RXF 393 renal) was 23.6 µM and the TGI (DU-145 prostate) was 30.9 µM. For the same compound, the TGI (K-562 leukemia) was greater than 100 µM, the TGI (OVCAR-4 ovarian) was 30.1 µM and the TGI (U251 CNS) was 30.4 µM. For the same compound, the TGI (CCRF-CEM leukemia) was greater than 100 µM, the TGI (OVCAR-3 ovarian) was 32 µM and the TGI (NCI/ADR-RES ovarian) was 40.8 µM. It also gave a TGI (SK-MEL-5 melanoma) of 33.4 µM, a TGI (T-47D breast) of 24 µM and a TGI (IGROV1 ovarian) of 30.4 µM.
